Results from patent publication US20250084128A1, “ANTIVIRAL […]-STAPLED SARS-CoV-2 PEPTIDE-C[…] USES THEREOF” (priority 2021, published 2025).

System: pseudotyped SARS-CoV-2 virus
Type: cell-based

| Substance | differential antiviral activity |
| --- | --- |
| DISGINASVVNIQK8IDRLNEXAKNLNESLIDLQELGK [SEQ ID NO: 11] | little to no activity |
| DISGINASVVNIQKEIDR8NEVAKNXNESLIDLQELGK [SEQ ID NO: 15] | little to no activity |
| DISGINASVVNIQKEID8LNEVAKXLNESLIDLQELGK [SEQ ID NO: 14] | little to no activity |
| DISGINASVVNIQKEI8RLNEVAXNLNESLIDLQELGK [SEQ ID NO: 13] | moderate activity |
| DISGINASVVNIQKEIDRL8EVAKNLXESLIDLQELGK [SEQ ID NO: 16] | moderate activity |
